Measurements from patent publication US10179771B2 (GALAPAGOS NV, priority 2014, dated 2019).

target: T1, Recombinant human JAK1 catalytic domain (Homo sapiens, UniProt P23458); assay: JAK1 inhibition assay (polyGT substrate / Ulight-JAK1 peptide assay); assay type: biochemical; details: Comparative Compounds (Table VI)
T1 construct: Recombinant human JAK1 (catalytic domain, amino acids 866-1154; catalog number PV4774); purchased Invitrogen PV4774
Experimental: Recombinant human JAK1 catalytic domain (amino acids 850-1154; catalog number 08-144) was purchased from Carna Biosciences. 10 ng of JAK1 is incubated with 12.5 μg polyGT substrate (Sigma catalog number P0275) in kinase reaction buffer (15 mM Tris-HCl pH 7.5, 1 mM DTT, 0.01% Tween-20, 10 mM MgCl2, 2 μM non-radioactive ATP, 0.25 ρCi ^33P-gamma-ATP (GE Healthcare, catalog number AH9968) final concentrations) with or without 5 μL containing test compound or vehicle (DMSO, 1% final concentration), in a total volume of 25 μL, in a polypropylene 96-well plate (Greiner, V-bottom). After 45 min at 30° C., reactions are stopped by adding of 25 μL/well of 150 mM phosphoric acid. All of the terminated kinase reaction is transferred to prewashed (75 mM phosphoric acid) 96 well filter plates (Perkin Elmer catalog number 6005177) using a cell harvester (Perkin Elmer). Plates are washed 6 times with 300 μL per well of a 75 mM phosphoric acid solution and the bottom of the plates is sealed. 40 μL/well of Microscint-20 is added, the top of the plates is sealed and readout is performed using the Topcount (Perkin Elmer). Kinase activity is calculated by subtracting counts per min (cpm) obtained in the presence of a positive control inhibitor (10 μM staurosporine) from cpm obtained in the presence of vehicle. The ability of a test compound to inhibit this activity is determined as:
[formula] • RFU test compound=RFU determined for sample with test compound present • RFU control=RFU determined for sample with positive control inhibitor • RFU vehicle=RFU determined in the presence of vehicle
Dose dilution series are prepared for the compounds enabling the testing of dose-response effects in the JAK1 assay and the calculation of the IC50 for each compound. Each compound is routinely tested at concentration of 20 μM followed by a 1/3 serial dilution, 8 points (20 μM-6.67 μM-2.22 μM-740 nM-247 nM-82 nM-27 nM-9 nM) in a final concentration of 1% DMSO. When potency of compound series increased, more dilutions are prepared and/or the top concentration was lowered (e.g. 5 μM, 1 μM).
Recombinant human JAK1 (catalytic domain, amino acids 866-1154; catalog number PV4774) was purchased from Invitrogen. 1 ng of JAK1 was incubated with 20 nM Ulight-JAK1 (tyr1023) peptide (Perkin Elmer catalog number TRF0121) in kinase reaction buffer (25 mM MOPS pH6.8, 0.01% Brij-35, 5 mM MgCl2, 2 mM DTT, 7 μM ATP) with or without 4 μL containing test compound or vehicle (DMSO, 1% final concentration), in a total volume of 20 μL, in a white 384 Opti plate (Perkin Elmer, catalog number 6007290). After 60 min at room temperature, reactions were stopped by adding 20 μL/well of detection mixture (1× detection buffer (Perkin Elmer, catalog number CR97-100C), 0.5 nM Europium-anti-phosphotyrosine (PT66) (Perkin Elmer, catalog number AD0068), 10 mM EDTA). Readout is performed using the Envision with excitation at 320 nm and measuring emission at 615 nm (Perkin Elmer). Kinase activity was calculated by subtracting relative fluorescence units (RFU) obtained in the presence of a positive control inhibitor (10 μM staurosporine) from RFU obtained in the presence of vehicle. The ability of a test compound to inhibit this activity was determined as: Percentage inhibition=((RFU determined for sample with test compound present−RFU determined for sample with positive control inhibitor) divided by (RFU determined in the presence of vehicle−RFU determined for sample with positive control inhibitor))*100.
Dose dilution series were prepared for the compounds enabling the testing of dose-response effects in the JAK1 assay and the calculation of the IC50 for the compound. Each compound is routinely tested at concentration of 20 μM followed by a 1/5 serial dilution, 10 points in a final concentration of 1% DMSO. When potency of compound series increases, more dilutions are prepared and/or the top concentration are lowered (e.g. 5 μM, 1 μM). […]

T1 sequence (P23458 866-1154): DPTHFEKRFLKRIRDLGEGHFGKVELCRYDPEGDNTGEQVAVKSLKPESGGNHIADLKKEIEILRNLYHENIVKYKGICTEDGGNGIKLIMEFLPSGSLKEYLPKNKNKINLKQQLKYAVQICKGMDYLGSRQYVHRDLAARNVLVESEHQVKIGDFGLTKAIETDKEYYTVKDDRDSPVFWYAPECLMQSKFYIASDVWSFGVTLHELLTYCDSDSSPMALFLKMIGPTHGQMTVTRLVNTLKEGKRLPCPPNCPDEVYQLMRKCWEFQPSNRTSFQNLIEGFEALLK

| IC50 [nM] | Structure (SMILES) |
| --- | --- |
| > 500 | CN(c1cc2c(cn1)ncn2C)c1ccc(C#N)cc1F [D, reference compound] |
| > 500 | CN(c1ccc2ncn(C)c2c1)c1ccc(C#N)cc1F [C, 3-fluoro-4-[methyl-(3-methylbenzimidazol-5-yl)amino]benzonitrile, reference compound] |

same assay, conditions: Illustrative Compounds of the invention (Table V)

| Structure (SMILES) | IC50 [nM] |
| --- | --- |
| Cc1cc(C#N)ncc1Oc1cc(NC(=O)N2CCOCC2)c2ncn(C)c2c1 [Cpd 37, N-[6-[(6-cyano-4-methyl-3-pyridyl)oxy]-1-methyl-benzimidazol-4-yl]morpholine-4-carboxamide] | > 500 |
| Cc1cc(C#N)ncc1Oc1cc(NC(=O)C2CC2)c2ncn(C)c2c1 [Cpd 23, N-[6-[(6-cyano-4-methyl-3-pyridyl)oxy]-1-methyl-benzimidazol-4-yl]cyclopropanecarboxamide] | 0.1 to 50 |
| CCc1cc(C#N)cc(F)c1N(C)c1cc(NC(=O)C2CC2)c2ncn(C)c2c1 [Cpd 3, N-(6-((4-cyano-2-ethyl-6-fluorophenyl)(methyl)amino)-1-methyl-1H-benzo[d]imidazol-4-yl)cyclopropanecarboxamide] | 0.1 to 50 |
| CCc1cc(C#N)cc(F)c1N(C)c1cc(NC(=O)[C@@H]2C[C@@H]2F)c2ncn(C)c2c1 (racemic) [Cpd 7, N-(6-((4-cyano-2-ethyl-6-fluorophenyl)(methyl)amino)-1-methyl-1H-benzo[d]imidazol-4-yl)-2-fluorocyclopropanecarboxamide (1S,2S)/(1R,2R) racemic mixture] | 0.1 to 50 |
| CCc1cc(C#N)cc(F)c1N(C)c1cc(NC(=O)OC)c2ncn(C)c2c1 [Cpd 5, methyl 6-((4-cyano-2-ethyl-6-fluorophenyl)(methyl)amino)-1-methyl-1H-benzo[d]imidazol-4-ylcarbamate] | 0.1 to 50 |
| Cc1cc(C#N)nc(F)c1N(C)c1cc(NC(=O)[C@H]2C[C@H]2F)c2ncn(C)c2c1 [Cpd 21, (1R,2R)-N-[6-[(6-cyano-2-fluoro-4-methyl-3-pyridyl)-methyl-amino]-1-methyl-benzimidazol-4-yl]-2-fluoro-cyclopropanecarboxamide] | 0.1 to 50 |
| CCc1cc(C#N)ncc1Oc1cc(NC(=O)[C@H]2C[C@H]2F)c2ncn(C)c2c1 [Cpd 6, (1R,2R)-N-[6-[(6-cyano-4-ethyl-3-pyridyl)oxy]-1-methyl-benzimidazol-4-yl]-2-fluoro-cyclopropanecarboxamide] | 0.1 to 50 |
| CNc1cc(Oc2cnc(C#N)cc2C)cc2c1ncn2C [Cpd 34, 4-methyl-5-[3-methyl-7-(methylamino)benzimidazol-5-yl]oxy-pyridine-2-carbonitrile] | 100 to 500 |
| CCc1cc(C(N)=O)ncc1N(C)c1cc(NC(=O)[C@H]2C[C@H]2F)c2ncn(C)c2c1 [Cpd 25, 4-ethyl-5-((4-((1R,2R)-2-fluorocyclopropanecarboxamido)-1-methyl-1H-benzo[d]imidazol-6-yl)(methyl)amino)picolinamide] | 0.1 to 50 |
| CCc1cc(C#N)ncc1N(C)c1cc(NC(=O)[C@H]2C[C@H]2F)c2ncn(C)c2c1 [Cpd 8, (1R,2R)-N-(6-((6-cyano-4-ethylpyridin-3-yl)(methyl)amino)-1-methyl-1H-benzo[d]imidazol-4-yl)-2-fluorocyclopropanecarboxamide] | 0.1 to 50 |
| CCc1cc(S(C)(=O)=O)ncc1N(C)c1cc(NC(=O)C2CC2)c2ncn(C)c2c1 [Cpd 18, N-[6-[(4-ethyl-6-methylsulfonyl-3-pyridyl)-methyl-amino]-1-methyl-benzimidazol-4-yl]cyclopropanecarboxamide] | 0.1 to 50 |
| Cc1cc(C(N)=O)ncc1Oc1cc(NC(=O)[C@H]2C[C@H]2F)c2ncn(C)c2c1 [Cpd 32, 5-[7-[[(1R,2R)-2-fluorocyclopropanecarbonyl]amino]-3-methyl-benzimidazol-5-yl]oxy-4-methyl-pyridine-2-carboxamide] | 50 to 100 |
| Cc1cc(S(C)(=O)=O)cc(F)c1N(C)c1cc(NC(=O)[C@H]2C[C@H]2F)c2ncn(C)c2c1 [Cpd 16, (1R,2R)-2-fluoro-N-[6-(2-fluoro-N,6-dimethyl-4-methylsulfonyl-anilino)-1-methyl-benzimidazol-4-yl]cyclopropanecarboxamide] | 0.1 to 50 |
| Cc1cnc(C#N)c(F)c1N(C)c1cc(NC(=O)[C@H]2C[C@H]2F)c2ncn(C)c2c1 [Cpd 22, (1R,2R)-N-[6-[(2-cyano-3-fluoro-5-methyl-4-pyridyl)-methyl-amino]-1-methyl-benzimidazol-4-yl]-2-fluoro-cyclopropanecarboxamide] | 0.1 to 50 |
| CN(c1cc(NC(=O)[C@H]2C[C@H]2F)c2ncn(C)c2c1)c1ccc(F)nc1F [Cpd 13, (1R,2R)-N-[6-[(2,6-difluoro-3-pyridyl)-methyl-amino]-1-methyl-benzimidazol-4-yl]-2-fluoro-cyclopropanecarboxamide] | 50 to 100 |

Now from value to compound:

| IC50 [nM] | Structure (SMILES) |
| --- | --- |
| 0.1 to 50 | CCc1cc(S(C)(=O)=O)ncc1Oc1cc(NC(=O)C2CC2)c2ncn(C)c2c1 [Cpd 29, N-[6-[(4-ethyl-6-methylsulfonyl-3-pyridyl)oxy]-1-methyl-benzimidazol-4-yl]cyclopropanecarboxamide] |
| 100 to 500 | CN(c1cc(NC(=O)[C@H]2C[C@H]2F)c2ncn(C)c2c1)c1ccc(S(C)(=O)=O)cc1F [Cpd 17, (1R,2R)-2-fluoro-N-[6-(2-fluoro-N-methyl-4-methylsulfonyl-anilino)-1-methyl-benzimidazol-4-yl]cyclopropanecarboxamide] |
| 0.1 to 50 | Cc1cc(F)ncc1N(C)c1cc(NC(=O)[C@H]2C[C@H]2F)c2ncn(C)c2c1 [Cpd 12, (1R,2R)-2-fluoro-N-[6-[(6-fluoro-4-methyl-3-pyridyl)-methyl-amino]-1-methyl-benzimidazol-4-yl]cyclopropanecarboxamide] |
| 0.1 to 50 | CNC(=O)Nc1cc(Oc2cnc(C#N)cc2C)cc2c1ncn2C |
| 0.1 to 50 | Cc1cc(S(C)(=O)=O)cc(F)c1N(C)c1cc(NC(=O)C2CC2)c2ncn(C)c2c1 [Cpd 19, N-[6-(2-fluoro-N,6-dimethyl-4-methylsulfonyl-anilino)-1-methyl-benzimidazol-4-yl]cyclopropanecarboxamide] |
| 0.1 to 50 | Cc1cc(S(C)(=O)=O)ccc1N(C)c1cc(NC(=O)[C@H]2C[C@H]2F)c2ncn(C)c2c1 [Cpd 26, (1R,2R)-N-[6-(N,2-dimethyl-4-methylsulfonyl-anilino)-1-methyl-benzimidazol-4-yl]-2-fluoro-cyclopropanecarboxamide] |
| 0.1 to 50 | CN(c1cc(NC(=O)[C@H]2C[C@H]2F)c2ncn(C)c2c1)c1ccc(C#N)nc1F [Cpd 14, (1R,2R)-N-[6-[(6-cyano-2-fluoro-3-pyridyl)-methyl-amino]-1-methyl-benzimidazol-4-yl]-2-fluoro-cyclopropanecarboxamide] |
| 0.1 to 50 | CCc1cc(C#N)ncc1N(C)c1cc(NC(=O)OC)c2ncn(C)c2c1 [Cpd 4, methyl 6-((6-cyano-4-ethylpyridin-3-yl)(methyl)amino)-1-methyl-1H-benzo[d]imidazol-4-ylcarbamate] |
| 0.1 to 50 | Cc1cc(C#N)ncc1N(C)c1cc(NC(=O)[C@H]2C[C@H]2F)c2ncn(C)c2c1 [Cpd 9, (1R,2R)-N-(6-((6-cyano-4-methylpyridin-3-yl)(methyl)amino)-1-methyl-1H-benzo[d]imidazol-4-yl)-2-fluorocyclopropanecarboxamide] |
| 50 to 100 | Cc1cc(C#N)ncc1Oc1cc(N)c2ncn(C)c2c1 [Cpd 28, 5-(7-amino-3-methyl-benzimidazol-5-yl)oxy-4-methyl-pyridine-2-carbonitrile] |
